Our source for the MIC values is DBAASP.

SMILES strings stand for the structures. Values after ≈ are worked out from the molar mass of the structure shown.

As usually defined, the MIC is the smallest concentration in the dilution series that meets the test's criterion for growth inhibition. Low values mean a more susceptible organism, high ones a less susceptible organism.

Some test systems named below: Escherichia coli; Trichosporon beigelii; Pseudomonas aeruginosa; Staphylococcus aureus; Bacillus subtilis; Saccharomyces cerevisiae; Botrytis cinerea; Proteus vulgaris; Fusarium verticillioides; Salmonella typhimurium; Rhizoctonia solani; Fusarium solani; Ramulariopsis gossypii; Trichoderma asperellum; Fusarium oxysporum; Aeromonas hydrophila; Streptococcus pyogenes; Vibrio alginolyticus; Vibrio parahaemolyticus; Vibrio fluvialis.

Holding throughout (assay): ≥ marks a high value that may be exact or a test limit, other limits are often not marked, values filed in µg/mL are converted to µM
Test [1] deals with Staphylococcus epidermidis.
In test [2] the test system is Aspergillus fumigatus KCTC 6145.
Test [3] concerns Aspergillus flavus KCTC 9471.
In test [4] the test system is Listeria monocytogenes KCTC 3710.
In test [5] the test system is Escherichia coli O157:H7 ATCC 43895.
In test [6] the test system is Candida albicans KCTC 7270.
Test [7] relates to Escherichia coli ATCC 25922.
Test [8] concerns Bacillus cereus ATCC 14579.
Test [9] concerns Candida albicans ATCC 90028.
In test [10] the test system is Fusarium oxysporum f.sp. vasinfectum.
Test [11] has as its system Pectobacterium carotovorum.
In test [12] the test system is Xanthomonas campestris pv. citri.
Test [13] deals with Pseudomonas syringae pv. tabaci.
Test [14] relates to Cryptococcus neoformans ATCC 28957.
For test [15], the system named is Pseudomonas aeruginosa ATCC 27853.
Test [16] has as its system Staphylococcus aureus ATCC 25923.
For test [17], the system named is Bacillus subtilis ATCC 23857.
The subject of test [18] is Penicillium expansum EPS 26.
Test [19] deals with Aspergillus niger CECT 2694.
The test system of test [20] is Fusarium oxysporum f. sp. lycopersici ATCC 201829.
For test [21], the system named is Xanthomonas vesicatoria 2133-2.
The test system of test [22] is Rhizopus stolonifer CECT 2344.
Test [23] concerns Pseudomonas syringae EPS 94.
Test [24] deals with Erwinia amylovora PMV 6076.
In test [25] the test system is Staphylococcus aureus SR1550.
Test [26] has as its system Escherichia coli K-12 594.
In test [27] the test system is Staphylococcus aureus ATCC 6538P.
Test [28] relates to Streptococcus mutans UA159.
For test [29], the system named is Streptococcus sanguinis ATCC 49295.
For test [30], the system named is Streptococcus gordonii ATCC 10558.
Test [31] deals with Streptococcus mutans GS-5.

Turning to `CC[C@H](C)[C@H](NC(=O)[C@H](CCCCN)NC(=O)[C@H](CO)NC(=O)[C@H](Cc1ccccc1)NC(=O)[C@H](CC(C)C)NC(=O)[C@H](CCCCN)NC(=O)[C@H](CCC(=O)O)NC(=O)[C@H](CC(C)C)NC(=O)[C@H](CCCN=C(N)N)NC(=O)[C@H](CCCCN)NC(=O)[C@H](Cc1ccccc1)NC(=O)[C@@H](NC(=O)[C@H](CCCCN)NC(=O)[C@H](CCCCN)NC(=O)[C@H](C)N)C(C)C)C(=O)N[C@@H](Cc1ccc(O)cc1)C(=O)N[C@@H](CC(N)=O)C(=O)N[C@@H](Cc1ccc(O)cc1)C(=O)N[C@@H](CCCCN)C(N)=O` [AKKVFKRLEKLFSKIYNYK], the minimum inhibitory concentration (MIC) in [1] is 3.13 µM (≈ 7.52 µg/mL); in test [2] it was no less than 35.4 µM; in test [3] it was no less than 50 µM; in the test on Escherichia coli, 3.13 µM (≈ 7.52 µg/mL); against Trichosporon beigelii, 1.56 µM (≈ 3.75 µg/mL); in the test with Pseudomonas aeruginosa, 3.13 µM (≈ 7.52 µg/mL). In addition, the MIC against Staphylococcus aureus stood at 3.13 µM (≈ 7.52 µg/mL); in the test with Bacillus subtilis it was 1.56 µM (≈ 3.75 µg/mL); in the test on Saccharomyces cerevisiae, 25 µM (≈ 60.1 µg/mL); in the test on Botrytis cinerea it was 6.25 µM (≈ 15 µg/mL); in the test on Proteus vulgaris it was 4.42 µM (≈ 10.6 µg/mL); in the test with Fusarium verticillioides it was 12.5 µM (≈ 30 µg/mL). The MIC in [4] came out at 0.78 µM (≈ 1.87 µg/mL); in [5], 3.13 µM (≈ 7.52 µg/mL); against Salmonella typhimurium, 0.39 µM (≈ 0.937 µg/mL); in [6], 12.5 µM (≈ 30 µg/mL).

As to `CC(C)C[C@H](NC(=O)[C@H](C)NC(=O)[C@H](CC(C)C)NC(=O)[C@@H](NC(=O)[C@H](C)NC(=O)[C@H](CCCCN)NC(=O)[C@H](CC(C)C)NC(=O)[C@H](CC(C)C)NC(=O)[C@@H](NC(=O)[C@H](Cc1cnc[nH]1)NC(=O)[C@@H](NC(=O)[C@H](CCCCN)NC(=O)[C@H](CO)NC(=O)[C@H](CC(C)C)NC(=O)[C@@H](NC(=O)[C@@H](N)CCCCN)C(C)C)C(C)C)[C@@H](C)O)C(C)C)C(N)=O` [KVLSKVHTLLKAVLAL], the MIC is 2 µM (≈ 3.46 µg/mL) in test [7]; 3.33 µM (≈ 5.77 µg/mL) in [8]; 16 µM (≈ 27.7 µg/mL) in the test with Rhizoctonia solani; 8 µM (≈ 13.9 µg/mL) in test [9]; 4 µM (≈ 6.93 µg/mL) in [10]; 1 µM (≈ 1.73 µg/mL) in test [11]. For the same compound, the MIC came out at 1 µM (≈ 1.73 µg/mL) in [12]; 16 µM (≈ 27.7 µg/mL) against Fusarium solani; 2 µM (≈ 3.46 µg/mL) against Ramulariopsis gossypii; 4 µM (≈ 6.93 µg/mL) in test [13]; 16 µM (≈ 27.7 µg/mL) in the test on Trichoderma asperellum; 4 µM (≈ 6.93 µg/mL) in test [14]. Further, the MIC in test [15] amounted to 5.33 µM (≈ 9.23 µg/mL); in test [16], 4 µM (≈ 6.93 µg/mL); against Fusarium oxysporum, 4 µM (≈ 6.93 µg/mL); in test [17], 1 µM (≈ 1.73 µg/mL).

Consider `CC[C@H](C)[C@H](NC(=O)[C@H](CCCCN)NC(=O)[C@H](CCCCN)NC(=O)[C@H](Cc1ccccc1)NC(=O)[C@H](CC(C)C)NC(=O)[C@H](CCCCN)NC(=O)[C@@H](N)CC(C)C)C(=O)N[C@@H](CC(C)C)C(=O)N[C@@H](CCCCN)C(=O)N[C@H](C(=O)N[C@@H](CC(C)C)C(N)=O)C(C)C` [LKLFKKILKVL], for which the minimal inhibitory concentration (MIC) is no less than 35.4 µM in [18]; 22.4 µM (≈ 30 µg/mL) in test [19]; 0.424 µM (≈ 0.569 µg/mL) in test [20]; 11 µM (≈ 14.7 µg/mL) in test [21]; no less than 35.4 µM in test [22]; 5.92 µM (≈ 7.94 µg/mL) in test [23]. In addition, the MIC in [24] was 5.92 µM (≈ 7.94 µg/mL).

Turning to `CC(C)C[C@H](NC(=O)[C@H](CCCN=C(N)N)NC(=O)[C@H](CC(C)C)NC(=O)[C@H](CC(C)C)NC(=O)[C@H](CC(C)C)NC(=O)[C@H](CC(C)C)NC(=O)[C@H](CC(C)C)NC(=O)[C@H](CCCN=C(N)N)NC(=O)[C@H](CC(C)C)NC(=O)[C@@H](N)CCCN=C(N)N)C(=O)N[C@@H](CCCN=C(N)N)C(N)=O` [RLRLLLLLRLR], the MIC in [25] turned out to be 24.4 µM (≈ 35 µg/mL); in test [26] it was 24.4 µM (≈ 35 µg/mL); in test [27], 1.39 µM (≈ 2 µg/mL).

`CC(C)C[C@H](NC(=O)[C@H](CCCN=C(N)N)NC(=O)[C@H](Cc1ccccc1)NC(=O)[C@H](Cc1ccccc1)NC(=O)[C@@H](N)[C@@H](C)O)C(=O)N[C@@H](Cc1ccccc1)C(=O)N[C@@H](CC(N)=O)C(=O)N[C@@H](CCCN=C(N)N)C(=O)N[C@@H](CO)C(=O)N[C@@H](Cc1ccccc1)C(=O)N[C@H](C(=O)O)[C@@H](C)O` [TFFRLFNRSFT]: the MIC in test [28], in test [29], in test [30] and in test [31] was no less than 178 µM throughout.

Regarding `CC[C@H](C)[C@H](NC(=O)[C@H](CC(N)=O)NC(=O)[C@H](CC(=O)O)NC(=O)[C@H](Cc1ccc(O)cc1)NC(=O)[C@@H](NC(=O)[C@H](CCCCN)NC(=O)[C@H](Cc1cnc[nH]1)NC(=O)[C@H](CC(C)C)NC(=O)[C@H](CC(C)C)NC(=O)[C@H](Cc1ccccc1)NC(=O)[C@H](CC(N)=O)NC(=O)[C@@H](N)C(C)C)[C@@H](C)CC)C(=O)N[C@@H](CCCN=C(N)N)C(=O)N[C@@H](Cc1ccc(O)cc1)C(=O)N[C@@H](CO)C(=O)O` [VNFLLHKIYDNIRYS], the MIC in the test on Aeromonas hydrophila was 8.23 µM (≈ 15.6 µg/mL); against Streptococcus pyogenes it was no less than 33 µM; against Escherichia coli, 4.12 µM (≈ 7.8 µg/mL); in the test on Staphylococcus aureus, greater than 132 µM; against Vibrio alginolyticus it was no less than 132 µM; against Vibrio parahaemolyticus, no less than 33 µM. In the test on Vibrio fluvialis, this compound returned an MIC of no less than 132 µM.
